The numbers were not newly measured in patent US11427609B2, “Glycosidic derivatives of treprostinil” (AOP ORPHAN IP AG, priority 2017, dated 2022), which cites them from elsewhere.

Take `CCCCC[C@H](O)CC[C@@H]1[C@H]2Cc3cccc(OCC(=O)O)c3C[C@H]2C[C@H]1O` [Treprostinil]: the bioavailability (Remodulin, subcutaneous or intravenous infusion) is given as around 100%. The biological half-life (human organism) is given as 4.4-4.6 hours. For the same compound, under “in vivo”, the excretion in feces is reported as 13%, the “urinary excretion as identified metabolites” value is 64% and the “urinary excretion as unmetabolized treprostinil” value is listed as 4%. The urinary excretion (total) was 79%.

The term bioavailability denotes dose-corrected exposure relative to a reference, in per cent.
